The record followed here is ChEMBL document CHEMBL5252509, “In depth analysis of kinase cross screening data to identify chemical starting points for inhibition of the Nek family of kinases” (Medchemcomm, 2018).

The target of test [1] is T1, Eukaryotic translation initiation factor 2-alpha kinase 3 (Homo sapiens, UniProt Q9NZJ5).
T1 sequence (Q9NZJ5 whole entry): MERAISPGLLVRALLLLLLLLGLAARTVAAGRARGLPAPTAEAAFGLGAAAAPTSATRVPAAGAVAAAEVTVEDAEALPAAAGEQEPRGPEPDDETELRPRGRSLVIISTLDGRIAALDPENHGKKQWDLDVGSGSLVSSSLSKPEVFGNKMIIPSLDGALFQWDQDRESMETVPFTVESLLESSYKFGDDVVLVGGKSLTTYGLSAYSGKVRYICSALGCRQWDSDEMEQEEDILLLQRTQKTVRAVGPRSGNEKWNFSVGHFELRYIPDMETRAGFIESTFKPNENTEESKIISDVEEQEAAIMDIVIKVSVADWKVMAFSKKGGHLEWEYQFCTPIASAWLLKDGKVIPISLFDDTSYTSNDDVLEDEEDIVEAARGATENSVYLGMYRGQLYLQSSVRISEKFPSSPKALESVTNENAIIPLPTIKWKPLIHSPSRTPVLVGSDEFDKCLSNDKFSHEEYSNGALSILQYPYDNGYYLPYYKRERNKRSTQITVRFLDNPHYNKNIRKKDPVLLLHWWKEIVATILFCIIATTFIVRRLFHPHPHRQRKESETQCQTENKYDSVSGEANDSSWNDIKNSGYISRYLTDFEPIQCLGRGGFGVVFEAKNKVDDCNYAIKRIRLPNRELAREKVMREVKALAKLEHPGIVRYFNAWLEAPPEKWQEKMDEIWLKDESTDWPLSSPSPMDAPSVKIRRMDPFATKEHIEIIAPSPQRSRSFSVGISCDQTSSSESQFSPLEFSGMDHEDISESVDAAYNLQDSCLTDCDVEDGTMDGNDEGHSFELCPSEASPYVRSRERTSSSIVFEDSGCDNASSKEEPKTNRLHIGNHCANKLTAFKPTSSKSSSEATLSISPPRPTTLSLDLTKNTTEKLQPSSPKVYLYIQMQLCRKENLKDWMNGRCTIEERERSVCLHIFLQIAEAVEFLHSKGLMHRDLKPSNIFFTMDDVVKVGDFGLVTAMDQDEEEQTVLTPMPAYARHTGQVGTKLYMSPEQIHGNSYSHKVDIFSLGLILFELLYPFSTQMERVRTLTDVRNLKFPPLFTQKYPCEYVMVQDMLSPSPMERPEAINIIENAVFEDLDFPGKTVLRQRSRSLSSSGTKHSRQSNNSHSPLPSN
As to the kind of experiment: Inhibition of PERK (unknown origin).

The target of test [2] is T2, Serine/threonine-protein kinase Nek1 (Homo sapiens) (UniProt Q96PY6).
T2 sequence (whole entry): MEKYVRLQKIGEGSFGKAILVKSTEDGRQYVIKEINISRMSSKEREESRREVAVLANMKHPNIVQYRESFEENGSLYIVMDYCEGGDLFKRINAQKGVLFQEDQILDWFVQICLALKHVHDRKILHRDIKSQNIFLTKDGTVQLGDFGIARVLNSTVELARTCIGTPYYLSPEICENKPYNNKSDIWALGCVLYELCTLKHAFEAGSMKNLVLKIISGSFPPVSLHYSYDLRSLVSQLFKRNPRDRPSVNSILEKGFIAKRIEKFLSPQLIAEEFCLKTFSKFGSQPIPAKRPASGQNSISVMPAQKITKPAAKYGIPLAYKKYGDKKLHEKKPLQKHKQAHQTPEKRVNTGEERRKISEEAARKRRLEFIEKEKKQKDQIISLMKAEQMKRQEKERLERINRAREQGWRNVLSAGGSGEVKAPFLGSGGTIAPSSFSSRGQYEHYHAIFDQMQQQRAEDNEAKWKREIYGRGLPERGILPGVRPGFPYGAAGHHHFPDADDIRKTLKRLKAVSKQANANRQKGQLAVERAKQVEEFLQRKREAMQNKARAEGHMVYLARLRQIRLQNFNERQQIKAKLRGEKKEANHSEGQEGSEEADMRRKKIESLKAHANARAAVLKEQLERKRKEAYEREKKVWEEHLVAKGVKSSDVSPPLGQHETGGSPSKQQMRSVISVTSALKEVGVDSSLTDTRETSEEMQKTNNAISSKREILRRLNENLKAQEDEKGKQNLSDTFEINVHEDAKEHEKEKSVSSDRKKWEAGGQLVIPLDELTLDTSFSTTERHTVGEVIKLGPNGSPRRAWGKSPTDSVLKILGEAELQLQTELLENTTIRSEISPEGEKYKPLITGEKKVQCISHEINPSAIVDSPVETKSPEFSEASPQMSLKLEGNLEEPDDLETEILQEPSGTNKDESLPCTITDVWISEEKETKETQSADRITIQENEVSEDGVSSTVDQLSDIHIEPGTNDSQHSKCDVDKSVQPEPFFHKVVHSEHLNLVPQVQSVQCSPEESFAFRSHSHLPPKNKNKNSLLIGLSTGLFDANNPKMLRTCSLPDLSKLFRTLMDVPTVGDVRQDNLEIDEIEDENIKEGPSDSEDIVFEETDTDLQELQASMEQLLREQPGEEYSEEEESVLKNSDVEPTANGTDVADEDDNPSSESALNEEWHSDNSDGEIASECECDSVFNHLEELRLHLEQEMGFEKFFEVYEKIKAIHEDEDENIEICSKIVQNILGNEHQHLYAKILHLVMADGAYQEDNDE
Nature of the test: Inhibition of NEK1 (unknown origin) at 10 uM relative to control.

For `Cn1cc(-c2cnc(N)c3c(-c4ccc5c(c4)CCN5C(=O)Cc4ccccc4)csc23)cn1`, in test [1], the half-inhibitory concentration (IC50) – broadly, the concentration needed to halve the response being measured – is below 15 nM.

The compound `O=C1NC(=O)/C(=C/c2ccc3nccc(-c4ccncc4)c3c2)S1` registered a % control in test [2] of 47%.

For `CN(C)C/C=C/C(=O)Nc1cccc(C(=O)Nc2ccc(Nc3nccc(-c4cccnc4)n3)cc2)c1`, the % control in test [2] stood at 77%.

Compound `CN(C)C/C=C/C(=O)Nc1ccc(C(=O)Nc2cccc(Nc3nccc(-c4cccnc4)n3)c2)cc1` registered a % control in test [2] of 63%.

`Nc1nccc2scc(-c3ccc4c(c3)CCN4C(=O)Cc3ccccc3)c12`: in test [1], the IC50 was below 15 nM.

Compound `Cc1cc(NC(=O)c2cccc(NC(=O)/C=C/CN(C)C)c2)ccc1Nc1nccc(-c2cccnc2)n1` gave a % control in test [2] of 81%.

For `Fc1cc(-c2cc[nH]/c(=N/c3ccc(-n4cnc(N5CCOCC5)n4)cc3)n2)cc(N2CCOCC2)c1`, in test [2], the % control was found to be 57%.

`Cc1ccc(CC(=O)N2CCc3cc(-c4cn(C)c5ncnc(N)c45)ccc32)cc1` gave an IC50 in test [1] of 17 nM.

`Nc1nccc2scc(-c3ccc4c(c3)CCN4C(=O)Cc3cc(F)ccc3F)c12`: in test [1], the half-inhibitory concentration (IC50) was below 15 nM.

`CN(C)C/C=C/C(=O)Nc1cccc(C(=O)Nc2ccc(Nc3nccc(-c4c(-c5ccccc5)nn5ccccc45)n3)cc2)c1`: in test [2], the % control was found to be 100%.

`Cc1ccc(NC(=O)c2ccc(NC(=O)/C=C/CN(C)C)cc2)cc1Nc1nccc(-c2cccnc2)n1`: the % control in test [2] was determined as 100%.

As for `Nc1ncc(-c2cn[nH]c2)c2scc(-c3ccc4c(c3)CCN4C(=O)Cc3ccccc3)c12`, in test [1], the half-inhibitory concentration (IC50) was below 15 nM.

Turning to `CN(C)C/C=C/C(=O)Nc1cccc(C(=O)Nc2ccc(Nc3nccc(/C(C#N)=C4\Nc5ccccc5S4)n3)cc2)c1`, the % control in test [2] was 100%.
